Values after ≈ are worked out from the molar mass of the structure shown.
tested on: virus; assay: Antiviral action test: screening by inhibition of cell degeneration effect (CPE) in virus-infected HeLa cells; format: cell-based; settings: amount of added drug whereby the CPE became 50%, M.O.I = 0.002, culture for three days
Description: HeLa cells were subjected to subcultured by monolayer culture (Eagle's MEM-10% CS) and infected as M.O.I. (multiplicity of infection) = 0.01.
On the first day, HeLa cells were spread in a 75 cm³ flask and cultured on a one-day growth medium (Eagle's MEM-10% CS). On the second day, old medium was removed after confirming the formation of cell sheet, then M.O.I was made 0.01 PFU/cell and 0.5 ml of virus solution was added. The original virus solution was diluted with PBS-3% FCS solution. Operation of the virus inoculation was conducted by tilting for 1 hour at room temperature. After virus was inoculated on the cells, the virus-inoculated solution was removed, washed twice with 10 ml PBS and the residual virus solution was removed. Then 15 ml of maintenance medium (Eagle's MEM-1% CS) was added and cultured at 37°C for 2 days. The cells were observed from time to time and the culture was continued until cell fusion and cell rounding were confirmed. After the culture, medium was recovered which was used as a virus solution and was stored at -20°C until actual use.
The 78 cm³ flask containing HeLa cells which were subjected to a monolayer maintenance subculture was taken out, the old medium was discarded, 2-3 ml of 0.25% trypsine (Difco = 1:250)-0.02% EDTA/PBS(-) solution was added, tilted for a few seconds, the trypsine solution was removed and warmed at 37°C for 5 minutes. Then fresh medium was added, pipetted with a Komagome pipette and the cells were homogeneously dispersed.
Cells were counted using a cytometer, then fresh medium was added, diluted to make the cell concentration 5 x 10⁵ cells/ml, 2 ml of that was added to a laboratory dish of 35 mm diameter and cultured in a CO₂-incubator at 37°C for one day to prepare cell sheet.
The virus solution was diluted by a diluting solution to make diluted solutions of ten-times difference or step. The laboratory dish wherein HeLa cells were cultured on the previous day was taken out from the incubator, old medium was discarded and the cells were washed with each 2 ml of PBS twice. Properly diluted virus solution (0.2 ml) was added to each laboratory dish, subjected to a tilting at room temperature for 60 minutes immediately and virus was inoculated. Then the virus solution was removed, each 2 ml of 0.5% methylcellulose/Eagle's MEM-1% CS was added and cultured in a CO₂ incubator for 4 days.
The cultured laboratory dish was taken out from the CO₂-incubator and methylcellulose medium was removed. Then cells were washed with 2 ml of PDS, 2 ml of methanol was added, allowed to stand for 10 minutes and cells were immobilized and, at the same time, virus was sterilized. Hematoxylin dyeing solution (2 ml) was added to the laboratory dish which was immobilized with methanol, allowed to stand for about 10 minutes, washed with water and air-dried at room temperature. Since the cells destructed with virus were not dyed, plaque area was noted as a void and the plaque numbers were counted whereby virus value (PFU/ml) (Plaque forming units/ml) was measured.
HeLa cells during the subculture were dispersed with trypsine liquid-EDTA solution, 5 x 10⁵ cells/pore were embedded on a plate having 24 pores and cultured overnight at 37°C in a CO₂-incubator to prepare cell sheet.
As mentioned above, old medium was discarded, the cells were washed with PBS, the virus solution was diluted to make M.O.I = 0.002, 0.1 ml of it was added to each pore, subjected to a tilting at room temperature for 60 minutes and virus was inoculated to the cell.
Virus solution was removed from the cells after inoculation of virus, the cells were washed with 2 ml of PBS, each 1 ml of maintenance medium was added to each pore, then each 10 µl of the drug was added and the cells were cultured in a CO₂-incubator. Culture was conducted for three days.
The cells on the plate were observed under an invert microscope. Cell degeneration effect (CPE) was observed as cell fusion and making the cells round. […]

`CC(=CCCN1C[C@H](O)[C@@H](O)[C@H](O)[C@H]1CO)c1cccc(Cl)c1` [Compound No. 111, N-[4-(3-Chlorophenyl)-3-pentenyl]moranoline] and `CC(=CCCN1C[C@H](O)[C@@H](O)[C@H](O)[C@H]1CO)c1cccc(F)c1` [Compound No. 107, N-[4-(3-Fluorophenyl)-3-pentenyl]moranoline] are the same in “EC50 (50% CPE inhibition)” value: 30 µg/mL (≈ 87.8 µM) for the first, 30 µg/mL (≈ 92.2 µM) for the second.

`Cc1ccc(C=CCCN2CC(O)C(O)C(O)C2CO)cc1F` (centres unmarked) [Compound No. 133, 4-[4-(3-Fluoro-4-methylphenyl)-3-butenyl]moranoline] and `COc1ccc(C=CCCCN2C[C@H](O)[C@@H](O)[C@H](O)[C@H]2CO)cc1Cl` [Compound No. 148, N-[5-(3-Chloro-4-methoxyphenyl)-4-pentenyl]moranoline] are the same in “EC50 (50% CPE inhibition)” value: 30 µg/mL (≈ 92.2 µM) for the first, 30 µg/mL (≈ 80.7 µM) for the second.

Going from `CCOc1ccc(C(C)=CCN2C[C@H](O)[C@@H](O)[C@H](O)[C@H]2CO)cc1` [Compound No. 160, N-[3-(4-Ethoxyphenyl)-2-butenyl]moranoline] to `CCOc1ccc(C(C)=CCCN2C[C@H](O)[C@@H](O)[C@H](O)[C@H]2CO)cc1` [Compound No. 118, N-[4-(4-Ethoxyphenyl)-3-pentenyl]moranoline], the “EC50 (50% CPE inhibition)” value rises from 10 µg/mL (≈ 29.6 µM) to 30 µg/mL (≈ 85.4 µM) (3-fold).

Going from `CC(=CCCN1C[C@H](O)[C@@H](O)[C@H](O)[C@H]1CO)c1ccc(Oc2ccccc2)cc1` [Compound No. 115, N-[4-(4-Phenoxyphenyl)-3-pentenyl]moranoline] to `COc1ccc(C(=CCN2C[C@H](O)[C@@H](O)[C@H](O)[C@H]2CO)c2ccccc2)cc1` [Compound No. 105, N-(gamma-Phenyl-4-methoxycinnamyl)moranoline], the “EC50 (50% CPE inhibition)” value rises from 1 µg/mL (≈ 2.5 µM) to 100 µg/mL (≈ 259 µM) (100-fold).

First: OC[C@@H]1[C@@H](O)[C@H](O)[C@@H](O)CN1CC=C(c1ccccc1)c1ccc(F)cc1 [Compound No. 100, N-(gamma-Phenyl-4-fluorocinnamyl)moranoline]
Second: O.OC[C@@H]1[C@@H](O)[C@H](O)[C@@H](O)CN1CC=C(c1ccccc1)c1ccc(Cl)cc1 [Compound No. 99, N-(gamma-Phenyl-4-chlorocinnamyl)moranoline monohydrate]
The “EC50 (50% CPE inhibition)” value of the first is 3-fold lower: 10 µg/mL (≈ 26.8 µM) for the first, 30 µg/mL for the second.

Going from `C=C(C)C1CC=C(CN2C[C@H](O)[C@@H](O)[C@H](O)[C@H]2CO)CC1.Cc1ccc(S(=O)(=O)O)cc1` (some centres unmarked) [Compound No. 106, N-[(4-Isopropenyl-1-cyclohexenyl)methyl]moranoline tosylate] to `Cc1ccc(S(=O)(=O)O)cc1.OC[C@@H]1[C@@H](O)[C@H](O)[C@@H](O)CN1CCCC=Cc1ccccc1` [Compound No. 89, N-(5-Phenyl-4-pentenyl)moranoline tosylate], the “EC50 (50% CPE inhibition)” value falls from 30 µg/mL to 10 µg/mL (3-fold).

Compared with `OC[C@@H]1[C@@H](O)[C@H](O)[C@@H](O)CN1CCCOc1ccc(Cl)cc1` [Compound No. 93, N-[3-(4-Chlorophenoxy)propyl]moranoline], `CC(=CCCN1C[C@H](O)[C@@H](O)[C@H](O)[C@H]1CO)c1ccc(Cl)cc1` [Compound No. 110, N-[4-(4-Chlorophenyl)-3-pentenyl]moranoline] is 3-fold lower in “EC50 (50% CPE inhibition)” value: 30 µg/mL (≈ 90.4 µM) for the first, 10 µg/mL (≈ 29.3 µM) for the second.

Going from `CCOc1cccc(C(C)=CCN2C[C@H](O)[C@@H](O)[C@H](O)[C@H]2CO)c1` [Compound No. 159, N-(gamma-Methyl-3-ethoxycinnamyl)moranoline] to `COCCOc1cccc(C(C)=CCN2C[C@H](O)[C@@H](O)[C@H](O)[C@H]2CO)c1` [Compound No. 157, N-[3-(3-Methoxyethoxyphenyl)-2-butenyl]moranoline], the “EC50 (50% CPE inhibition)” value rises from 30 µg/mL (≈ 88.9 µM) to 100 µg/mL (≈ 272 µM) (3.3-fold).

`CC(=CCCN1C[C@H](O)[C@@H](O)[C@H](O)[C@H]1CO)c1cccc(C(F)(F)F)c1` [Compound No. 113, N-[4-(3-Trifluoromethylphenyl)-3-pentenyl]moranoline] and `CC(=CCCN1C[C@H](O)[C@@H](O)[C@H](O)[C@H]1CO)c1ccc(F)cc1` [Compound No. 108, N-[4-(4-Fluorophenyl)-3-pentenyl]moranoline] are the same in “EC50 (50% CPE inhibition)” value: 30 µg/mL (≈ 79.9 µM) for the first, 30 µg/mL (≈ 92.2 µM) for the second.

`CC(=CCCN1C[C@H](O)[C@@H](O)[C@H](O)[C@H]1CO)c1ccccc1Cl` [Compound No. 112, N-[4-(2-Chlorophenyl)-3-pentenyl]moranoline] and `CC(=CCCN1C[C@H](O)[C@@H](O)[C@H](O)[C@H]1CO)c1ccccc1C` [Compound No. 109, N-[4-(2-Methylphenyl)-3-pentenyl]moranoline] are the same in “EC50 (50% CPE inhibition)” value: 30 µg/mL (≈ 87.8 µM) for the first, 30 µg/mL (≈ 93.3 µM) for the second.

First: OC[C@@H]1[C@@H](O)[C@H](O)[C@@H](O)C[N+]1(CC=Cc1ccccc1Cl)CC=Cc1ccccc1Cl.[Cl-] (some centres unmarked) [Compound No. 123, N,N-Bis(2-chlorocinnamyl)moranoline ammonium chloride]
Second: CC(=CCN1C[C@H](O)[C@@H](O)[C@H](O)[C@H]1CO)c1ccc(Cl)c(Cl)c1 [Compound No. 102, N-(gamma-Methyl-3,4-dichlorocinnamyl)moranoline]
The “EC50 (50% CPE inhibition)” value of the first is 3.3-fold lower: 3 µg/mL for the first, 10 µg/mL (≈ 27.6 µM) for the second.

`COc1ccc(C=CCCCN2C[C@H](O)[C@@H](O)[C@H](O)[C@H]2CO)c(C)c1` [Compound No. 151, N-[5-(4-Methoxy-2-methylphenyl)-4-pentenyl]moranoline] and `Cc1ccc(CCCCN2C[C@H](O)[C@@H](O)[C@H](O)[C@H]2CO)cc1F` [Compound No. 150, N-[4-(3-Fluoro-4-methylphenyl)butyl]moranoline] are the same in “EC50 (50% CPE inhibition)” value: 30 µg/mL (≈ 85.4 µM) for the first, 30 µg/mL (≈ 91.6 µM) for the second.

`CC(=CCCN1C[C@H](O)[C@@H](O)[C@H](O)[C@H]1CO)c1ccc(N(C)C)cc1` [Compound No. 114, N-[4-(4-Dimethylaminophenyl)-3-pentenyl]moranoline] and `CC(=CCN1C[C@H](O)[C@@H](O)[C@H](O)[C@H]1CO)c1ccc(Br)cc1` [Compound No. 101, N-(gamma-Methyl-4-bromocinnamyl)moranoline] are the same in “EC50 (50% CPE inhibition)” value: 30 µg/mL (≈ 85.6 µM) for the first, 30 µg/mL (≈ 80.6 µM) for the second.

Compared with `CC(=CCCN1C[C@H](O)[C@@H](O)[C@H](O)[C@H]1CO)c1cc(C(C)C)ccc1C` [Compound No. 119, N-[4-(2-Methyl-5-isopropylphenyl)-3-pentenyl]moranoline], `COc1ccccc1C(C)=CCCN1C[C@H](O)[C@@H](O)[C@H](O)[C@H]1CO` [Compound No. 116, N-[4-(2-Methoxyphenyl)-3-pentenyl]moranoline] is 10-fold higher in “EC50 (50% CPE inhibition)” value: 3 µg/mL (≈ 8.25 µM) for the first, 30 µg/mL (≈ 88.9 µM) for the second.

Compared with `CCCCCCCCCCCCCCCCCC(=O)N1C[C@H](O)[C@@H](O)[C@H](O)[C@H]1CO` [Compound No. 171, N-Stearoylmoranoline], `CCCCCCCCCCCCCC(=O)N1C[C@H](O)[C@@H](O)[C@H](O)[C@H]1CO` [Compound No. 174, N-Myristoylmoranoline] is 3-fold lower in “EC50 (50% CPE inhibition)” value: 30 µg/mL (≈ 69.8 µM) for the first, 10 µg/mL (≈ 26.8 µM) for the second.

For `CCN1C[C@H](O)[C@@H](O)[C@H](O)[C@H]1CO` [B, N-ethylmoranoline, reference compound], the “EC50 (50% CPE inhibition)” value was greater than 100 µg/mL.

tested on: not listed separately; assay: Acute toxicity test in mice; format: in vivo; settings: Intraperitoneal Administration; male mice, ddY strain; observation for one week
Description: Four male mice (ddY strain; six weeks age) were used for each drug tested.
In the intraperitoneal administration, each drug was suspended in 0.5% CMC-physiological saline solution and 0.1 ml (per 10 g body weight of mouse) of the suspension was intraperitoneally given to mouse. In the case of oral administration, each drug was suspended in 0.5% CMC-physiological saline solution and 0.2 ml (per 10 g body weight of mouse) of the suspension was given orally. Observation was started soon after administration and, after observation for one week, the mice were killed by chloroform and subjected to autopsied. LD₅₀ of each drug tested was given in the following tables wherefrom it is clear that the compounds of the present invention are safe.

With `CC(=CCCN1C[C@H](O)[C@@H](O)[C@H](O)[C@H]1CO)c1ccc(Oc2ccccc2)cc1` [Compound No. 115, N-[4-(4-Phenoxyphenyl)-3-pentenyl]moranoline] the “L D ₅₀” value was greater than 300 mg/kg.
For `OC[C@@H]1[C@@H](O)[C@H](O)[C@@H](O)CN1CCCCc1ccc(Oc2ccccc2)cc1` [Compound No. 205, N-[4-(4-Phenoxyphenyl)butyl]moranoline], the “L D ₅₀” value was greater than 300 mg/kg.

same assay, conditions: Oral Administration; male mice, ddY strain; observation for one week

For `CC(=CCCN1C[C@H](O)[C@@H](O)[C@H](O)[C@H]1CO)c1ccc(Oc2ccccc2)cc1` [Compound No. 115, N-[4-(4-Phenoxyphenyl)-3-pentenyl]moranoline], the “L D ₅₀” value was > 5,000 mg/kg.
For `OC[C@@H]1[C@@H](O)[C@H](O)[C@@H](O)CN1CCCCc1ccc(Oc2ccccc2)cc1` [Compound No. 205, N-[4-(4-Phenoxyphenyl)butyl]moranoline], the “L D ₅₀” value was > 5,000 mg/kg.
